Measured values published in US6737383B1, “Herbicidal oxadiazolidines” (priority 1999, dated 2004).

Tests used:
wild oat = test: Test B pre/postemergence wild oat; assay type: in vivo, Avena fatua
Procedure, shortened: (§1)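 Herbicidal effect was estimated by eye on a ten-point control scale after plants spent twelve to sixteen days in a greenhouse following soil or foliar treatment. Foliar sprays targeted plants at one to four leaves; all doses were formulated in a non-phytotoxic solvent with surfactant.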

duck salad = test: Test B flood test duck salad; assay type: in vivo, Heteranthera limosa
Procedure, shortened: (§2)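 Plants were grown to the 2-leaf stage before treatment with test chemical, then held in a greenhouse for twelve to sixteen days. Injury was visually rated against untreated controls on a 0–10 scale, where 0 is no effect and 10 is complete control.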

smallflower flatsedge = test: Test B flood test smallflower flatsedge; assay type: in vivo, Cyperus difformis
Procedure, shortened: as §2

purple nutsedge = test: Test B pre/postemergence purple nutsedge; assay type: in vivo, Cyperus rotundus
Procedure, shortened: as §1

velvetleaf = test: Test B pre/postemergence velvetleaf; assay type: in vivo, Abutilon theophrasti
Procedure, shortened: as §1

cocklebur = test: Test B pre/postemergence cocklebur; assay type: in vivo, Xanthium strumarium
Procedure, shortened: as §1

rape = test: Test B pre/postemergence rape; assay type: in vivo, Brassica napus
Procedure, shortened: as §1

rice = test: Test B flood test rice; assay type: in vivo, Oryza sativa
Procedure, shortened: as §2

morningglory = test: Test B pre/postemergence morningglory; assay type: in vivo, Ipomoea hederacea
Procedure, shortened: as §1

pigweed = test: Test B pre/postemergence pigweed; assay type: in vivo, Amaranthus retroflexus
Procedure, shortened: as §1

wheat = test: Test B pre/postemergence wheat; assay type: in vivo, Triticum aestivum
Procedure, shortened: as §1

corn = test: Test B pre/postemergence corn; assay type: in vivo, Zea mays
Procedure, shortened: as §1

bamyardgrass = test: Test B flood test barnyardgrass; assay type: in vivo, Echinochloa crus-galli
Procedure, shortened: as §2

blackgrass = test: Test B pre/postemergence blackgrass; assay type: in vivo, Alopecurus myosuroides
Procedure, shortened: as §1

crabgrass = test: Test B pre/postemergence crabgrass; assay type: in vivo, Digitaria sanguinalis
Procedure, shortened: as §1

sugar beet = test: Test B pre/postemergence sugar beet; assay type: in vivo, Beta vulgaris
Procedure, shortened: as §1

giant foxtail = test: Test B pre/postemergence giant foxtail; assay type: in vivo, Setaria faberii
Procedure, shortened: as §1

bedstraw = test: Test B pre/postemergence bedstraw; assay type: in vivo, Galium aparine
Procedure, shortened: as §1

soybean = test: Test B pre/postemergence soybean; assay type: in vivo, Glycine max
Procedure, shortened: as §1

surinam grass = test: Test B pre/postemergence surinam grass; assay type: in vivo, Brachiaria decumbens
Procedure, shortened: as §1

[1] = Postemergence, Rate 500 g/ha, scale of 0 to 10 where 0 is no effect and 10 is complete control
[2] = Preemergence, Rate 62 g/ha, scale 0 to 10 (0 no effect, 10 complete control)
[3] = Preemergence, Rate 125 g/ha, scale of 0 to 10 where 0 is no effect and 10 is complete control
[4] = Preemergence, Rate 250 g/ha, scale 0 to 10, 0 is no effect, 10 is complete control
[5] = Preemergence, Rate 500 g/ha, scale 0 to 10, 0 is no effect, 10 is complete control
[6] = Rate 62 g/ha, flood test species, Pre-emergence, visual evaluation after twelve to sixteen days
[7] = Rate 125 g/ha, under heading Pre-emergence, flood test species, visual evaluation after twelve to sixteen days
[8] = Rate 250 g/ha, Pre-emergence, flood-test species, scale 0 to 10, 0 is no effect, 10 is complete control
[9] = Postemergence, Rate 250 g/ha, scale 0 to 10, 0 is no effect, 10 is complete control
[10] = Postemergence, Rate 125 g/ha, scale 0 to 10, 0 is no effect, 10 is complete control
[11] = Rate 62 g/ha, Postemergence, scale of 0 to 10 where 0 is no effect and 10 is complete control
[12] = Preemergence, Rate 250 g/ha, scale of 0 to 10 where 0 is no effect and 10 is complete control

SMILES: CC(C)N(C(=O)n1oc(=O)n(C(C)C2CC2)c1=O)c1ccc(F)cc1 (stereo not drawn) [Compound 404]
- Wild oats plant response rating (wild oat; [1]): 8
- Plant response rating, Wild oats (wild oat; [2]): 3
- Plant response rating, Wild oats (wild oat; [3]): 8
- Wild oats plant response rating (wild oat; [4]): 10
- Wild oats plant response rating (wild oat; [5]): 10
- Plant response rating, Ducksalad (0 to 10 scale, 0 is no effect, 10 is complete control) (duck salad; [6]): 0
- Ducksalad plant response rating (0 to 10 scale, 0 is no effect, 10 is complete control) (duck salad; [7]): 1
- Ducksalad plant response rating (duck salad; [8]): 5
- Plant response rating, S. Flatsedge (0 to 10 scale, 0 is no effect, 10 is complete control) (smallflower flatsedge; [6]): 0
- S. Flatsedge plant response rating (0 to 10 scale, 0 is no effect, 10 is complete control) (smallflower flatsedge; [7]): 0
- S. Flatsedge plant response rating (smallflower flatsedge; [8]): 8
- Plant response rating, Nutsedge (purple nutsedge; [9]): 0
- Nutsedge plant response rating (purple nutsedge; [1]): 0
- Plant response rating, Nutsedge (purple nutsedge; [2]): 0
- Plant response rating, Nutsedge (purple nutsedge; [3]): 0
- Nutsedge plant response rating (purple nutsedge; [4]): 0
- Nutsedge plant response rating (purple nutsedge; [5]): 0
- Plant response rating, Velvetleaf (velvetleaf; [9]): 0
- Velvetleaf plant response rating (velvetleaf; [1]): 6
- Plant response rating, Velvetleaf (velvetleaf; [2]): 0
- Plant response rating, Velvetleaf (velvetleaf; [3]): 1
- Velvetleaf plant response rating (velvetleaf; [4]): 5
- Velvetleaf plant response rating (velvetleaf; [5]): 7
- Plant response rating, Cocklebur (cocklebur; [10]): 2
- Plant response rating, Cocklebur (cocklebur; [9]): 2
- Cocklebur plant response rating (cocklebur; [1]): 3
- Plant response rating, Cocklebur (cocklebur; [2]): 0
- Plant response rating, Cocklebur (cocklebur; [3]): 0
- Cocklebur plant response rating (cocklebur; [4]): 0
- Cocklebur plant response rating (cocklebur; [5]): 0
- Cocklebur plant response rating (cocklebur; [11]): 0
- Plant response rating, Rape (rape; [9]): 4
- Rape plant response rating (rape; [1]): 8
- Plant response rating, Rape (rape; [2]): 1
- Plant response rating, Rape (rape; [3]): 4
- Rape plant response rating (rape; [4]): 7
- Rape plant response rating (rape; [5]): 8
- Plant response rating, Rice (0 to 10 scale, 0 is no effect, 10 is complete control) (rice; [6]): 0
- Rice plant response rating (0 to 10 scale, 0 is no effect, 10 is complete control) (rice; [7]): 0
- Rice plant response rating (rice; [8]): 7
- Plant response rating, Morningglory (morningglory; [9]): 7
- Morningglory plant response rating (morningglory; [1]): 10
- Plant response rating, Morningglory (morningglory; [2]): 0
- Plant response rating, Morningglory (morningglory; [3]): 2
- Morningglory plant response rating (morningglory; [4]): 4
- Morningglory plant response rating (morningglory; [5]): 5
- Plant response rating, Redroot pigweed (pigweed; [9]): 5
- Redroot pigweed plant response rating (pigweed; [1]): 7
- Plant response rating, Redroot pigweed (pigweed; [2]): 2
- Plant response rating, Redroot pigweed (pigweed; [3]): 6
- Redroot pigweed plant response rating (pigweed; [4]): 10
- Redroot pigweed plant response rating (pigweed; [5]): 10
- Wheat plant response rating (wheat; [1]): 3
- Plant response rating, Wheat (wheat; [2]): 0
- Plant response rating, Wheat (wheat; [3]): 2
- Wheat plant response rating (wheat; [4]): 4
- Wheat plant response rating (wheat; [5]): 5
- Plant response rating, Corn (corn; [10]): 0
- Plant response rating, Corn (corn; [9]): 0
- Corn plant response rating (corn; [1]): 1
- Plant response rating, Corn (corn; [2]): 0
- Plant response rating, Corn (corn; [3]): 2
- Corn plant response rating (corn; [4]): 2
- Corn plant response rating (corn; [5]): 6
- Corn plant response rating (corn; [11]): 0
- Plant response rating, Barnyardgrass (0 to 10 scale, 0 is no effect, 10 is complete control) (bamyardgrass; [6]): 4
- Barnyardgrass plant response rating (0 to 10 scale, 0 is no effect, 10 is complete control) (bamyardgrass; [7]): 9
- Barnyardgrass plant response rating (bamyardgrass; [8]): 9
- Plant response rating, Blackgrass (blackgrass; [9]): 10
- Blackgrass plant response rating (blackgrass; [1]): 10
- Plant response rating, Blackgrass (blackgrass; [2]): 6
- Plant response rating, Blackgrass (blackgrass; [3]): 7
- Blackgrass plant response rating (blackgrass; [12]): 9
- Blackgrass plant response rating (blackgrass; [5]): 10
- Blackgrass plant response rating (blackgrass; [11]): 5
- Plant response rating, Crabgrass (crabgrass; [10]): 3
- Plant response rating, Crabgrass (crabgrass; [9]): 5
- Crabgrass plant response rating (crabgrass; [1]): 8
- Plant response rating, Crabgrass (crabgrass; [2]): 10
- Plant response rating, Crabgrass (crabgrass; [3]): 10
- Crabgrass plant response rating (crabgrass; [4]): 10
- Crabgrass plant response rating (crabgrass; [5]): 10
- Crabgrass plant response rating (crabgrass; [11]): 0
- Plant response rating, Sugarbeets (sugar beet; [9]): 1
- Sugarbeets plant response rating (sugar beet; [1]): 4
- Plant response rating, Sugarbeets (sugar beet; [2]): 0
- Plant response rating, Sugarbeets (sugar beet; [3]): 3
- Sugarbeets plant response rating (sugar beet; [4]): 6
- Sugarbeets plant response rating (sugar beet; [5]): 8
- Plant response rating, Giant foxtail (giant foxtail; [10]): 9
- Plant response rating, Giant foxtail (giant foxtail; [9]): 9
- Giant foxtail plant response rating (giant foxtail; [1]): 9
- Plant response rating, Giant foxtail (giant foxtail; [2]): 10
- Plant response rating, Giant foxtail (giant foxtail; [3]): 10
- Giant foxtail plant response rating (giant foxtail; [4]): 10
- Giant foxtail plant response rating (giant foxtail; [5]): 10
- Giant foxtail plant response rating (giant foxtail; [11]): 5
- Plant response rating, Bedstraw (bedstraw; [9]): 8
- Plant response rating, Bedstraw (bedstraw; [2]): 0
- Bedstraw plant response rating (bedstraw; [12]): 10
- Bedstraw plant response rating (bedstraw; [5]): 10
- Plant response rating, Soybean (soybean; [9]): 6
- Soybean plant response rating (soybean; [1]): 7
- Plant response rating, Soybean (soybean; [2]): 0
- Plant response rating, Soybean (soybean; [3]): 0
- Soybean plant response rating (soybean; [4]): 0
- Soybean plant response rating (soybean; [5]): 3
- Plant response rating, B. signalgrass (surinam grass; [10]): 2
- B. signalgrass plant response rating (surinam grass; [1]): 6
- Plant response rating, B. signalgrass (surinam grass; [2]): 2
- Plant response rating, B. signalgrass (surinam grass; [3]): 4
- B. signalgrass plant response rating (surinam grass; [12]): 8
- B. signalgrass plant response rating (surinam grass; Preemergence, Rate 500 g/ha, scale of 0 to 10 where 0 is no effect and 10 is complete control): 10
- B. signalgrass plant response rating (surinam grass; [11]): 2
